Legend:
Type in all cases: cell-based
[1] = tested on: fibronectin; assay: Extracellular matrix expression by immunofluorescence (confocal, Image J): fibronectin; details: human dermal fibroblasts; peptide at 10 µM, 50 µM or 100 µM, 48 hours; green fluorescence intensity; maximum increase (FIG. 2)
Protocol: (§1) To confirm the effect of a peptide consisting of the amino acid sequence of SEQ ID NO: 1 on increasing the expression of the dermal extracellular matrix. Specifically, human dermal fibroblasts were seeded in a 6-well plate at a density of 3x10^5 cells/well and cultured for 24 hours. After replacing with serum-free mesenchymal stem cell medium, the cells were cultured for 24 hours. A peptide was treated at concentrations of 10 µM, 50 µM, or 100 µM, respectively, and incubated at 37 °C for 48 hours. Human recombinant FGF protein was treated at 100 nM. After the culture was completed, the culture supernatant was removed and fixed with 4 % paraformaldehyde for 30 minutes. After washing with PBS, the cells were reacted with 0.5 % Triton X-100 for 15 minutes. After reacting with 3 % BSA for 1 hour, primary antibodies against collagen type 1, fibronectin, and elastin were diluted 1:100 and reacted overnight at 4 °C. Secondary antibody-FITC was diluted 1:500 and reacted at room temperature for 2 hours, followed by DAPI staining and mounting. The expression images of each marker were observed using a confocal microscope (Leica, Germany). Green fluorescence intensity was measured using Image J.
(§2) The results are illustrated in FIG. 2. […]

[2] = tested on: human dermal fibroblasts; assay: Fibroblast proliferation effect (SRB staining, absorbance at 560 nm); details: peptide at 10 µM, 50 µM or 100 µM, 72 hours, 37 °C, concentration-dependent, maximum increase (FIG. 1)
Protocol: To confirm the effect of a peptide consisting of the amino acid sequence of SEQ ID NO: 1 on promoting the proliferation of Fibroblasts. Specifically, human dermal fibroblasts were seeded in a 96-well plate at a density of 5x10^3 cells/well and cultured for 24 hours. After replacing with serum-free mesenchymal stem cell medium, the cells were cultured for 24 hours. The above peptide was treated at concentrations of 10 µM, 50 µM, or 100 µM, respectively, and incubated at 37 °C for 72 hours. As a positive control group, 50 nM of human recombinant FGF protein was treated. After completion of culturing, the culture supernatant was removed and the cells were fixed using ethanol. After washing with PBS, staining was performed by treating with SRB solution. After washing with 1 % acetic acid, cells were observed under a microscope and destained by treating with 20 mM tris solution. Cell viability was measured by measuring absorbance at a wavelength of 560 nm using a spectrophotometer (SpectraMax iD3, Molecular Devices (USA, CA)).
The results are illustrated in FIG. 1. From the results of FIG. 1, it may be confirmed that proliferation was induced in a concentration-dependent manner in the peptide treatment group, increasing by up to 1.62 times.

[3] = tested on: collagen type 1; assay: Extracellular matrix expression by immunofluorescence (confocal, Image J): collagen type 1; details: human dermal fibroblasts; peptide at 10 µM, 50 µM or 100 µM, 48 hours; green fluorescence intensity; maximum increase (FIG. 2)
Protocol: as §1, §2

[4] = tested on: elastin; assay: Extracellular matrix expression by immunofluorescence (confocal, Image J): elastin; details: human dermal fibroblasts; peptide at 10 µM, 50 µM or 100 µM, 48 hours; green fluorescence intensity; maximum increase (FIG. 2)
Protocol: as §1, §2

## AERRREKCRC [peptide]
[1]
  fibronectin expression increase compared to the control group: up to 1.38 times
[2]
  proliferation increase: up to 1.62 times
[3]
  collagen type 1 expression increase compared to the control group: up to 1.32 times
[4]
  elastin expression increase compared to the control group: up to 2 times

From patent publication EP4692107A1, “PEPTIDE HAVING SKIN CONDITION IMPROVEMENT ACTIVITY AND USE THEREOF” (Caregen Co., Ltd., priority 2023, dated 2026)
